Assay results taken from patent US4421912A, “Cephalosporin derivatives” (Takeda Chemical Industries, Ltd., priority 1973, dated 1983).
Values after ≈ are worked out from the molar mass of the structure shown. Like-named read-outs stand apart in the source and are kept apart here.

What was measured:
E. coli 0-111 = assay: Antibacterial spectra, agar dilution method; type: cell-based
Source text: (§1) (mcg/ml., agar dilution method)
as §1
(§2) (mcg/ml, agar dilution method)
(§3) (mcg./ml., agar dilution method)

E. coli NIHJ JC-2 = assay: Antibacterial spectra, agar dilution method; type: cell-based; conditions: Escherichia coli
Source text: as §1, §1, §2, §3

S. aureus 1840 = assay: Antibacterial spectra, agar dilution method; type: cell-based
Source text: as §1, §1, §2, §3

S. aureus 209P = assay: Antibacterial spectra, agar dilution method; type: cell-based; conditions: Staphylococcus aureus, 209P
Source text: as §1, §1, §2, §3

E. coli T-7 = assay: Antibacterial spectra, agar dilution method; type: cell-based; conditions: Escherichia coli
Source text: (§4) |(mcg./ml., agar dilution method)

P. vulgaris IFO 3988 = assay: Antibacterial spectra, agar dilution method; type: cell-based; conditions: Proteus vulgaris
Source text: as §4

K. pneumoniae DT = assay: Antibacterial spectra, agar dilution method; type: cell-based; conditions: Klebsiella pneumoniae
P. morganii Eb53 = assay: Antibacterial spectra, agar dilution method; type: cell-based; conditions: Morganella morganii
Source text: as §2, §3

Escherichia coli 0111 = assay: Protective Effect on Infected Mice; type: in vivo; conditions: Escherichia coli, 0111, sc, 168 h, male ICR/SLC mice, i.p. E. coli 0111, single subcutaneous dose immediately after challenge, 7 days
Source text: Protective Effect (ED50 * , mg/kg) on Infected Mice
*Test animals: male mice (ICR/SLC) 5 mice per group per single dose
Infection: intraperitoneally with Escherichia coli 0111
Administration: a single subcutaneous dose immediately after challenge
Observation period: 7 days
*Test animals: male mice (ICR/SLC) 5 mice per group single dose

P. vulgaris Eb-58 = assay: Antibacterial spectra, agar dilution method; type: cell-based; conditions: Proteus vulgaris, EB58, tables in Examples 13 and 16
Source text: as §1, §2

[1] = Escherichia coli, 0111, E. coli 0-111, Table 11
[2] = NIHJJC2, read-out: Antibacterial spectra, E. coli NIHJ JC-2, Table 11
[3] = Staphylococcus aureus, 1840, read-out: Antibacterial spectra, S. aureus 1840, Table 11
[4] = read-out: Antibacterial spectra, S. aureus 209P, Table 11
[5] = T7, read-out: Antibacterial spectra
[6] = IFO3988, P. vulgaris IFO 3988, agar dilution method, Table 11, read-out: Antibacterial spectra
[7] = EB53, read-out: Antibacterial spectra
[8] = Staphylococcus aureus, S. aureus 1840, Table 11, read-out: Antibacterial spectra
[9] = T7, E. coli T-7, agar dilution method, Table 11, read-out: Antibacterial spectra
[10] = Table 12, read-out: Protective Effect (ED50) on Infected Mice
[11] = P. morganii Eb53, agar dilution method, Table 11, read-out: Antibacterial spectra
[12] = Escherichia coli, 0111, E. coli 0-111, tables in the Examples
[13] = Staphylococcus aureus, 1840, read-out: Antibacterial spectra, S. aureus 1840, tables in the Examples
[14] = read-out: Antibacterial spectra, S. aureus 209P, tables in the Examples
[15] = NIHJJC2, E. coli NIHJ JC-2, Table 11, read-out: Antibacterial spectra

SMILES | MIC (E. coli 0-111; [1]) | MIC (E. coli NIHJ JC-2; [2]) | MIC (S. aureus 1840; [3]) | MIC (S. aureus 209P; [4]) | MIC (P. vulgaris IFO 3988; [6]) | MIC (K. pneumoniae DT; Table 11) | MIC (P. morganii Eb53; [7]) | ED50 (Escherichia coli 0111; Table 13, read-out: ED50) | MIC (E. coli T-7; [9]) | also measured
NC(=O)CSc1nnc(SCC2=C(C(=O)[O-])N3C(=O)C(NC(=O)Cc4csc(N)n4)[C@H]3SC2)s1.[Na+] (stereo partly shown) [Compound 16, sodium 7-[2-(2-aminothiazol-4-yl)acetamido]-3-(2-carbamoylmethylthio-1,3,4-thiadiazol-5-yl)thiomethyl-3-cephem-4-carboxylate] | ≤ 0.2 µg/mL | 0.39 µg/mL | 0.78 µg/mL | ≤ 0.2 µg/mL | ≤ 0.2 µg/mL | ≤ 0.2 µg/mL | 1.56 µg/mL | < 0.625 mg/kg |  | MIC (E. coli T-7; [5]): 12.5 µg/mL
Nc1nc(CC(=O)NC2C(=O)N3C(C(=O)O)=C(CSc4nnc(CC(=O)O)s4)CSC23)cs1 (stereo not shown) [Compound 19, disodium 7-[2-(2-aminothiazol-4-yl)acetamido]-3-(2-carboxymethyl-1,3,4-thiadiazol-5-yl)thiomethyl-3-cephem-4-carboxylate] | ≤ 0.2 µg/mL | 0.78 µg/mL |  | 0.78 µg/mL | ≤ 0.2 µg/mL | ≤ 0.2 µg/mL | 0.78 µg/mL |  | 25 µg/mL | MIC (S. aureus 1840; [8]): 3.13 µg/mL; ED50 (Escherichia coli 0111; [10]): < 0.625 mg/kg
CN(C)CCNc1nnc(SCC2=C(C(=O)O)N3C(=O)C(NC(=O)Cc4csc(N)n4)C3SC2)s1 (stereo not shown) [Compound 18] | ≤ 0.2 µg/mL | 0.78 µg/mL (≈ 1.4 µM) |  | 1.56 µg/mL (≈ 2.8 µM) | 1.56 µg/mL (≈ 2.8 µM) | ≤ 0.2 µg/mL | 1.56 µg/mL (≈ 2.8 µM) | < 0.625 mg/kg |  | MIC (S. aureus 1840; [8]): 3.13 µg/mL (≈ 5.62 µM); MIC (E. coli T-7; [5]): 6.25 µg/mL (≈ 11.2 µM)
Cc1nnc(SCC2=C(C(=O)O)N3C(=O)C(NC(=O)Cc4csc(N)n4)C3SC2)n1C (stereo not shown) [Compound 42] | 0.1 µg/mL (≈ 0.208 µM) | 0.2 µg/mL (≈ 0.415 µM) | 1.56 µg/mL (≈ 3.24 µM) | 0.39 µg/mL (≈ 0.81 µM) |  | 0.1 µg/mL (≈ 0.208 µM) | 1.56 µg/mL (≈ 3.24 µM) |  |  | ED50 (Escherichia coli 0111; Table 14, read-out: ED50): 0.38 mg/kg
Nc1nc(CC(=O)NC2C(=O)N3C(C(=O)O)=C(CSc4nnc(NCCO)s4)CSC23)cs1 (stereo not shown) [Compound 17] | ≤ 0.2 µg/mL | 0.39 µg/mL (≈ 0.736 µM) |  | 0.39 µg/mL (≈ 0.736 µM) | 0.39 µg/mL (≈ 0.736 µM) | ≤ 0.2 µg/mL | 0.78 µg/mL (≈ 1.47 µM) | < 0.625 mg/kg |  | MIC (S. aureus 1840; [8]): 3.13 µg/mL (≈ 5.91 µM); MIC (E. coli T-7; [5]): 12.5 µg/mL (≈ 23.6 µM)
Nc1nc(CC(=O)NC2C(=O)N3C(C(=O)O)=C(CSc4nnc(SCCS(=O)(=O)O)s4)CSC23)cs1 (stereo not shown) [Compound 12] | ≤ 0.2 µg/mL | 0.78 µg/mL (≈ 1.28 µM) | 1.56 µg/mL (≈ 2.55 µM) | 0.39 µg/mL (≈ 0.639 µM) | ≤ 0.2 µg/mL | ≤ 0.2 µg/mL |  | < 0.625 mg/kg | 50 µg/mL (≈ 81.9 µM) | MIC (P. morganii Eb53; [11]): 25 µg/mL (≈ 40.9 µM)
CC(=O)OCCSc1nnc(SCC2=C(C(=O)[O-])N3C(=O)C(NC(=O)Cc4csc(N)n4)[C@H]3SC2)s1.[Na+] (stereo partly shown) [Compound 11, sodium 7-[2-(2-aminothiazol-4-yl)acetamido]-3-[2-(2-acetoxyethylthio)-1,3,4-thiadiazol-5-yl]thiomethyl-3-cephem-4-carboxylate] |  |  |  |  |  |  |  |  |  | ED50 (Escherichia coli 0111; [10]): < 0.625 mg/kg
Cn1nnnc1SCC1=C(C(=O)O)N2C(=O)C(NC(=O)Cc3csc(N)n3)C2SC1 (stereo not shown) [Example 16, sodium 7-[2-(2-aminothiazol-4-yl)acetamido]-3-(1-methyltetrazol-5-yl)thiomethyl-3-cephem-4-carboxylate] |  |  |  |  |  |  |  |  |  | MIC (E. coli 0-111; [12]): 0.2 µg/mL; MIC (E. coli NIHJ JC-2; NIHJJC2, read-out: Antibacterial spectra, E. coli NIHJ JC-2, tables in the Examples): 0.39 µg/mL; MIC (S. aureus 1840; [13]): 0.78 µg/mL; MIC (S. aureus 209P; [14]): 0.39 µg/mL; MIC (K. pneumoniae DT; tables in the Examples): < 0.1 µg/mL; MIC (P. vulgaris Eb-58): 0.39 µg/mL; MIC (P. morganii Eb53; P. morganii Eb53, agar dilution method, table in Example 16, read-out: Antibacterial spectra): 3.12 µg/mL; ED50 (Escherichia coli 0111; Table 14, read-out: ED50): 0.89 mg/kg
Nc1nc(CC(=O)NC2C(=O)N3C(C(=O)O)=C(CSc4nncs4)CSC23)cs1 (stereo not shown) [Example 13, sodium 7-[2-(2-aminothiazol-4-yl)-acetamido]-3-(1,3,4-thiadiazol-2-yl)thiomethyl-3-cephem-4-carboxylate] |  |  |  |  |  |  |  |  |  | MIC (E. coli 0-111; [12]): < 0.78 µg/mL; MIC (S. aureus 1840; [13]): < 0.78 µg/mL; MIC (S. aureus 209P; [14]): < 0.78 µg/mL; MIC (K. pneumoniae DT; tables in the Examples): < 0.78 µg/mL; MIC (P. vulgaris Eb-58): < 0.78 µg/mL; ED50 (Escherichia coli 0111; Table 14, read-out: ED50): 2.38 mg/kg
Cn1cnnc1SCC1=C(C(=O)O)N2C(=O)C(NC(=O)Cc3csc(N)n3)C2SC1 (stereo not shown) [Compound 39] | < 0.05 µg/mL | 0.2 µg/mL (≈ 0.428 µM) | 1.56 µg/mL (≈ 3.34 µM) | 0.78 µg/mL (≈ 1.67 µM) |  | 0.1 µg/mL (≈ 0.214 µM) |  |  | 25 µg/mL (≈ 53.5 µM) | MIC (P. morganii Eb53; [11]): 25 µg/mL (≈ 53.5 µM); ED50 (Escherichia coli 0111; Table 14, read-out: ED50): 0.73 mg/kg
CN(C)CCSc1nnc(SCC2=C(C(=O)O)N3C(=O)C(NC(=O)Cc4csc(N)n4)C3SC2)s1 (stereo not shown) [Compound 9] | 0.39 µg/mL (≈ 0.68 µM) |  | 0.78 µg/mL (≈ 1.36 µM) | ≤ 0.2 µg/mL |  | ≤ 0.2 µg/mL | < 0.2 µg/mL |  | 50 µg/mL (≈ 87.1 µM) | MIC (E. coli NIHJ JC-2; [15]): 1.56 µg/mL (≈ 2.72 µM); MIC (P. vulgaris IFO 3988; IFO3988, read-out: Antibacterial spectra): 6.25 µg/mL (≈ 10.9 µM); ED50 (Escherichia coli 0111; [10]): 0.812 mg/kg
Nc1nc(CC(=O)NC2C(=O)N3C(C(=O)O)=C(CSc4nnc(SCC(=O)O)s4)CSC23)cs1 (stereo not shown) [Compound 15] | ≤ 0.2 µg/mL | 0.78 µg/mL (≈ 1.39 µM) | 1.56 µg/mL (≈ 2.78 µM) | 0.78 µg/mL (≈ 1.39 µM) | ≤ 0.2 µg/mL | ≤ 0.2 µg/mL |  | < 0.625 mg/kg | 25 µg/mL (≈ 44.6 µM) | MIC (P. morganii Eb53; [11]): 3.13 µg/mL (≈ 5.58 µM)
CN(C)CC(=O)Nc1nnc(SCC2=C(C(=O)O)N3C(=O)C(NC(=O)Cc4csc(N)n4)C3SC2)s1 (stereo not shown) [Compound 7] | ≤ 0.2 µg/mL | 0.78 µg/mL (≈ 1.37 µM) |  | 0.78 µg/mL (≈ 1.37 µM) | 0.39 µg/mL (≈ 0.683 µM) | ≤ 0.2 µg/mL | 12.5 µg/mL (≈ 21.9 µM) |  | 25 µg/mL (≈ 43.8 µM) | MIC (S. aureus 1840; [8]): 3.13 µg/mL (≈ 5.48 µM)
NC(=O)Cc1nnc(SCC2=C(C(=O)[O-])N3C(=O)C(NC(=O)Cc4csc(N)n4)[C@H]3SC2)s1.[Na+] (stereo partly shown) [Compound 21, sodium 7-[2-(2-aminothiazol-4-yl)acetamido]-3-(2-carbamoylmethyl-1,3,4-thiadiazol-5-yl)thiomethyl-3-cephem-4-carboxylate] | ≤ 0.2 µg/mL | 0.39 µg/mL | 1.56 µg/mL | ≤ 0.2 µg/mL | ≤ 0.2 µg/mL | ≤ 0.2 µg/mL | 0.78 µg/mL |  |  | MIC (E. coli T-7; [5]): 25 µg/mL; ED50 (Escherichia coli 0111; [10]): < 0.625 mg/kg
Nc1nc(CC(=O)NC2C(=O)N3C(C(=O)O)=C(CSc4nc(CC(=O)O)cs4)CSC23)cs1 (stereo not shown) [Compound 30] | 0.39 µg/mL (≈ 0.739 µM) |  | 1.56 µg/mL (≈ 2.96 µM) | 0.39 µg/mL (≈ 0.739 µM) | 0.2 µg/mL (≈ 0.379 µM) | < 0.05 µg/mL |  |  | 100 µg/mL (≈ 190 µM) | MIC (E. coli NIHJ JC-2; [15]): 1.56 µg/mL (≈ 2.96 µM); MIC (P. morganii Eb53; [11]): 50 µg/mL (≈ 94.8 µM)
